Measured values reported in US7863449B2, “Modulators of muscarinic receptors” (Vertex Pharmaceuticals Incorporated, priority 2004, dated 2011).

Experiments:
M1 muscarinic receptor = target: T1, M1 muscarinic receptor (Homo sapiens, UniProt P11229); assay: Functional mobilization of intracellular calcium (FLIPR), M1-CHO cells; type: cell-based; details: for Emax: 100% efficacy is the maximum response obtained using Carbachol as a control; for M1 Activity: M1-CHO cells, FLIPR calcium mobilization
T1 construct: expressed in transfected cells; host or cells: CHO (M1-CHO)
T1 sequence (P11229 1-460): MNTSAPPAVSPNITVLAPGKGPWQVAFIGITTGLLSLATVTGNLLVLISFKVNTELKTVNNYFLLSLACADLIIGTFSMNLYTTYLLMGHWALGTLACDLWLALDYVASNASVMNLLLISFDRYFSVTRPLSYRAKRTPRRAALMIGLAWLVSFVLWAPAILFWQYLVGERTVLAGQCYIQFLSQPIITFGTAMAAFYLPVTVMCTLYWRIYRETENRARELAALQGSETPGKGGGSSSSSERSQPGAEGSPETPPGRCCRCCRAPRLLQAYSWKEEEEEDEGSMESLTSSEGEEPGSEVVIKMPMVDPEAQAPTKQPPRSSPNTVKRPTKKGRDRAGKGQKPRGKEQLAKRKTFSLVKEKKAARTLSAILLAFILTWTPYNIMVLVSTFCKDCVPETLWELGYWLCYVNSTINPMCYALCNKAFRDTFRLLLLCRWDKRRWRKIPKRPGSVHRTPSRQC
Outline: (§1)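 Calcium flux recorded 60 s (ex 488, em 540 nm) in dye-loaded M1- or M4-CHO cells in pH 7.4 buffer with 1 mM probenecid. Inhibition measured against carbachol EC80 after 15 min compound pre-incubation or co-addition; agonism measured by compound addition alone. Final DMSO 0.5%.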

M4 muscarinic receptor = target: T2, M4 muscarinic receptor (Homo sapiens, UniProt P08173); assay: Functional mobilization of intracellular calcium (FLIPR), M4-CHO cells; type: cell-based; details: for Emax: 100% efficacy is the maximum response obtained using Carbachol as a control; for M4 Activity: M4-CHO cells, FLIPR calcium mobilization
T2 construct: expressed in transfected cells; host or cells: CHO (M4-CHO)
T2 sequence (P08173 1-479): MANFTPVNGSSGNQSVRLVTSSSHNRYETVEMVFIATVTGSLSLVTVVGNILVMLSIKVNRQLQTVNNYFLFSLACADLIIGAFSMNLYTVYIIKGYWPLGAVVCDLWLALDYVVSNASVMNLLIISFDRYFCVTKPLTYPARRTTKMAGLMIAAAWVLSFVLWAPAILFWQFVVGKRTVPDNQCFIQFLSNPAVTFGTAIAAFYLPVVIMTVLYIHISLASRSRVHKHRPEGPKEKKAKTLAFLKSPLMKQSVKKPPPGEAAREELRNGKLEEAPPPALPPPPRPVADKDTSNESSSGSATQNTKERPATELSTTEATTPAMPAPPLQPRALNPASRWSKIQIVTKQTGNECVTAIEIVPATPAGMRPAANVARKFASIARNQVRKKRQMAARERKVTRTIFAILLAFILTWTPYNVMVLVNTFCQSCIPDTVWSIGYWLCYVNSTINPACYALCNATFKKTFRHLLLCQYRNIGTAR
Outline: as §1

Structure (SMILES)	Emax (M1 muscarinic receptor) [%]	M1 Activity (M1 muscarinic receptor)	Emax (M4 muscarinic receptor) [%]	M4 Activity (M4 muscarinic receptor)
CCOC(=O)N1C2CCC1CC(N1CCC3(CC1)CN(C(=O)NC1CCCC1)Cc1ccccc13)C2 (stereo not shown) [compound 321]	25 to 100	+++ (activity was measured to be less than 1.0 μM)	25 to 100	+++ (activity was measured to be less than 1.0 μM)
CC(=O)N1Cc2ccccc2C2(CCN(Cc3ccccc3C#N)CC2)C1 [compound 322]	< 25	+ (activity was measured to be greater than 5.0 μM)	< 25	+ (activity was measured to be greater than 5.0 μM)
CSC(C)CCN1CCC2(CC1)NC(=O)c1ccccc12 (stereo not shown) [compound 323]	< 25	+ (activity was measured to be greater than 5.0 μM)	< 25	+ (activity was measured to be greater than 5.0 μM)
CCOC(=O)N1C2CCC1CC(N1CCC3(CC1)CN(S(=O)(=O)c1cccc(F)c1)Cc1ccccc13)C2 (stereo not shown) [compound 324]	25 to 100	+++ (activity was measured to be less than 1.0 μM)	25 to 100	+++ (activity was measured to be less than 1.0 μM)
CCCC1CCC(N2CCC3(CC2)CN(C(C)=O)Cc2ccccc23)CC1 (stereo not shown) [compound 326]	25 to 100	+++ (activity was measured to be less than 1.0 μM)	25 to 100	+++ (activity was measured to be less than 1.0 μM)
CN(C)C(=O)N1Cc2ccccc2C2(CCN(C3CC4CCC(C3)N4C(=O)OC3CCC3)CC2)C1 (stereo not shown) [compound 327]	25 to 100	+++ (activity was measured to be less than 1.0 μM)	25 to 100	+++ (activity was measured to be less than 1.0 μM)
CCOC(=O)N1CCC(N2CCC3(CC2)CN(C(=O)c2snnc2C)Cc2ccccc23)CC1 [compound 328]	25 to 100	+++ (activity was measured to be less than 1.0 μM)	25 to 100	+++ (activity was measured to be less than 1.0 μM)
CCOC(=O)N1CCC(CN2CCC3(CC2)CN(C(=O)c2cnon2)Cc2ccccc23)CC1 [compound 329]	25 to 100	+++ (activity was measured to be less than 1.0 μM)	25 to 100	+++ (activity was measured to be less than 1.0 μM)
CCOC(=O)N1CCC(CN2CCC3(CC2)CN(C(=O)c2ccccn2)Cc2ccccc23)CC1 [compound 330]	25 to 100	+++ (activity was measured to be less than 1.0 μM)	25 to 100	+++ (activity was measured to be less than 1.0 μM)
CC(=O)N1Cc2ccccc2C2(CCN(Cc3cc(C)ccc3F)CC2)C1 [compound 331]	< 25	+ (activity was measured to be greater than 5.0 μM)	< 25	+ (activity was measured to be greater than 5.0 μM)
CC(=O)N1Cc2ccccc2C2(CCN(Cc3cccc(C)n3)CC2)C1 [compound 334]	< 25	+ (activity was measured to be greater than 5.0 μM)	< 25	+ (activity was measured to be greater than 5.0 μM)
CC(=O)N1Cc2ccccc2C2(CCN(Cc3ccc(C(C)O)cc3)CC2)C1 (stereo not shown) [compound 335]	< 25	+ (activity was measured to be greater than 5.0 μM)	< 25	+ (activity was measured to be greater than 5.0 μM)
CCOC(=O)N1CCC(N2CCC3(CC2)CN(S(=O)(=O)c2ccc(F)cc2)Cc2ccccc23)CC1 [compound 337]	25 to 100	+++ (activity was measured to be less than 1.0 μM)	25 to 100	+++ (activity was measured to be less than 1.0 μM)
CCOC(=O)N1CCC(N2CCC3(CC2)CN(C(=O)Oc2ccc(F)cc2)Cc2ccccc23)CC1 [compound 342]	25 to 100	+++ (activity was measured to be less than 1.0 μM)	25 to 100	+++ (activity was measured to be less than 1.0 μM)
CCOC(=O)N1C2CCC1CC(N1CCC3(CC1)CN(C(=O)N1CCCCC1)Cc1ccccc13)C2 (stereo not shown) [compound 344]	25 to 100	+++ (activity was measured to be less than 1.0 μM)	25 to 100	+++ (activity was measured to be less than 1.0 μM)
CCOC(=O)N1CCC(CN2CCC3(CC2)CN(S(=O)(=O)c2ccc(F)cc2)Cc2ccccc23)CC1 [compound 345]	25 to 100	+++ (activity was measured to be less than 1.0 μM)	25 to 100	+++ (activity was measured to be less than 1.0 μM)
CC(C)(C)CCN1CCC2(CC1)NC(=O)c1ccccc12 [compound 346]	25 to 100	++ (activity was measured to be from 1.0 μM to 5.0 μM)	25 to 100	++ (activity was measured to be from 1.0 μM to 5.0 μM)
O=C1c2ccccc2C2(CCN(C3CCCCCC3)CC2)N1Cc1ccccc1 [compound 347]	25 to 100	+ (activity was measured to be greater than 5.0 μM)	< 25	+ (activity was measured to be greater than 5.0 μM)
CC(=O)N1Cc2ccccc2C2(CCN(C3CC4CCC(C3)N4C(=O)OC3CCC3)CC2)C1 (stereo not shown) [compound 348]	25 to 100	+++ (activity was measured to be less than 1.0 μM)	25 to 100	+++ (activity was measured to be less than 1.0 μM)
CC(=O)N1Cc2ccccc2C2(CCN(C3CCCCCC3)CC2)C1 [compound 349]	25 to 100	+++ (activity was measured to be less than 1.0 μM)	25 to 100	+++ (activity was measured to be less than 1.0 μM)
CCOC(=O)N1C2CCC1CC(N1CCC3(CC1)CN(C(=O)NC(C)C)Cc1ccccc13)C2 (stereo not shown) [compound 350]	25 to 100	+++ (activity was measured to be less than 1.0 μM)	25 to 100	+++ (activity was measured to be less than 1.0 μM)
Cc1cc(C(=O)N2Cc3ccccc3C3(CCN(C4CC5CCC(C4)N5C(=O)O[C@@H]4CCOC4)CC3)C2)nn1C (stereo partly shown) [compound 351]	25 to 100	+++ (activity was measured to be less than 1.0 μM)	25 to 100	+++ (activity was measured to be less than 1.0 μM)
O=C1NC2(CCN(CC3CCOC3)CC2)c2ccccc21 (stereo not shown) [compound 352]	< 25	+ (activity was measured to be greater than 5.0 μM)	< 25	+ (activity was measured to be greater than 5.0 μM)
CCCOC(=O)N1C2CCC1CC(N1CCC3(CC1)CN(S(=O)(=O)CCC)Cc1ccccc13)C2 (stereo not shown) [compound 353]	25 to 100	+++ (activity was measured to be less than 1.0 μM)	25 to 100	+++ (activity was measured to be less than 1.0 μM)
CC(=O)N1Cc2ccccc2C2(CCN(C3CC4CCC(C3)N4C(=O)O[C@H]3CCOC3)CC2)C1 (stereo partly shown) [compound 354]	25 to 100	+++ (activity was measured to be less than 1.0 μM)	25 to 100	+++ (activity was measured to be less than 1.0 μM)
CCOC(=O)N1C2CCC1CC(N1CCC3(CC1)CN(S(=O)(=O)c1ccc(C#N)cc1)Cc1ccccc13)C2 (stereo not shown) [compound 355]	25 to 100	+++ (activity was measured to be less than 1.0 μM)	25 to 100	+++ (activity was measured to be less than 1.0 μM)
CCOC(=O)N1CCC(CN2CCC3(CC2)CN(S(=O)(=O)N(C)C)Cc2ccccc23)CC1 [compound 356]	25 to 100	+++ (activity was measured to be less than 1.0 μM)	25 to 100	+++ (activity was measured to be less than 1.0 μM)
CCCOC(=O)N1C2CCC1CC(N1CCC3(CC1)CN(C(C)=O)Cc1ccccc13)C2 (stereo not shown) [compound 357]	25 to 100	+++ (activity was measured to be less than 1.0 μM)	25 to 100	+++ (activity was measured to be less than 1.0 μM)
